Laboratory results reported in the supplement of paper PMC10883282.

What was measured:
Experiment in all cases: relative viability vs DMSO control (72 h) (fraction); higher = more viable cells
[1] = tested on: SYO-1
Method in brief: (§1)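 Sarcoma cell lines were seeded in 384-well plates at densities chosen for 80–90% confluence, then 24 h later given 2.5 µl of serially diluted compound drawn from source plates spanning 10 mM to 0.0002 mM. They were held 72 h at 37 °C, 5% CO2, with 0.1% DMSO vehicle and a 5 µM positive control included. Relative viability was read with ATPLite as percent growth and averaged over up to triplicate wells. Rescaling placed full at 1 and none at 0.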

[2] = tested on: SW872
Method in brief: as §1

[3] = tested on: KHOS-NP
Method in brief: as §1

[4] = tested on: SW684
Method in brief: as §1

[5] = tested on: HT1080
Method in brief: as §1

[6] = tested on: G401
Method in brief: as §1

[7] = tested on: SK-LMS-1
Method in brief: as §1

[8] = tested on: VA-ES-BJ
Method in brief: as §1

[9] = tested on: HS729
Method in brief: as §1

[10] = tested on: A204
Method in brief: as §1

[11] = tested on: SW1353
Method in brief: as §1

[12] = tested on: MES-SA
Method in brief: as §1

Cc1nc(Nc2ncc(C(=O)Nc3c(C)cccc3Cl)s2)cc(N2CCN(CCO)CC2)n1 [Dasatinib]
Conditions	relative viability
[1], 0.00017 µM	0.917
[1], 0.00051 µM	0.923
[1], 0.00152 µM	0.91
[1], 0.00457 µM	0.865
[1], 0.01372 µM	0.779
[1], 0.04115 µM	0.704
[1], 0.1235 µM	0.645
[1], 0.3704 µM	0.573
[1], 1.111 µM	0.528
[1], 3.333 µM	0.415
[1], 10 µM	0.188
[2], 0.00017 µM	1.03
[2], 0.00051 µM	1.02
[2], 0.00152 µM	1.01
[2], 0.00457 µM	0.957
[2], 0.01372 µM	0.86
[2], 0.04115 µM	0.779
[2], 0.1235 µM	0.639
[2], 0.3704 µM	0.551
[2], 1.111 µM	0.521
[2], 3.333 µM	0.481
[2], 10 µM	0.359
[3], 0.00017 µM	1.023
[3], 0.00051 µM	1.03
[3], 0.00152 µM	1
[3], 0.00457 µM	0.993
[3], 0.01372 µM	0.923
[3], 0.04115 µM	0.872
[3], 0.1235 µM	0.721
[3], 0.3704 µM	0.525
[3], 1.111 µM	0.436
[3], 3.333 µM	0.327
[3], 10 µM	0.237
[4], 0.00017 µM	1.166
[4], 0.00051 µM	1.15
[4], 0.00152 µM	1.18
[4], 0.00457 µM	1.18
[4], 0.01372 µM	1.15
[4], 0.04115 µM	1
[4], 0.1235 µM	0.739
[4], 0.3704 µM	0.625
[4], 1.111 µM	0.6057
[4], 3.333 µM	0.619
[4], 10 µM	0.457
[5], 0.00017 µM	1.03
[5], 0.00051 µM	1.05
[5], 0.00152 µM	1.04
[5], 0.00457 µM	1.01
[5], 0.01372 µM	1.02
[5], 0.04115 µM	0.989
[5], 0.1235 µM	0.924
[5], 0.3704 µM	0.895
[5], 1.111 µM	0.907
[5], 3.333 µM	0.873
[5], 10 µM	0.535
[6], 0.00017 µM	1
[6], 0.00051 µM	0.996
[6], 0.00152 µM	1.015
[6], 0.00457 µM	1
[6], 0.01372 µM	0.959
[6], 0.04115 µM	0.876
[6], 0.1235 µM	0.833
[6], 0.3704 µM	0.789
[6], 1.111 µM	0.7831
[6], 3.333 µM	0.69
[6], 10 µM	0.391
[7], 0.00017 µM	1.03
[7], 0.00051 µM	1.06
[7], 0.00152 µM	1.09
[7], 0.00457 µM	1.04
[7], 0.01372 µM	1.03
[7], 0.04115 µM	0.895
[7], 0.1235 µM	0.722
[7], 0.3704 µM	0.623
[7], 1.111 µM	0.611
[7], 3.333 µM	0.656
[7], 10 µM	0.4228
[8], 0.00017 µM	1.04
[8], 0.00051 µM	1.04
[8], 0.00152 µM	1.04
[8], 0.00457 µM	0.996
[8], 0.01372 µM	0.856
[8], 0.04115 µM	0.688
[8], 0.1235 µM	0.502
[8], 0.3704 µM	0.447
[8], 1.111 µM	0.413
[8], 3.333 µM	0.335
[8], 10 µM	0.246
[9], 0.00017 µM	0.947
[9], 0.00051 µM	0.959
[9], 0.00152 µM	0.95
[9], 0.00457 µM	0.869
[9], 0.01372 µM	0.796
[9], 0.04115 µM	0.696
[9], 0.1235 µM	0.633
[9], 0.3704 µM	0.618
[9], 1.111 µM	0.609
[9], 3.333 µM	0.585
[9], 10 µM	0.581
[10], 0.00017 µM	1.08
[10], 0.00051 µM	1.04
[10], 0.00152 µM	1.06
[10], 0.00457 µM	1.02
[10], 0.01372 µM	0.83
[10], 0.04115 µM	0.501
[10], 0.1235 µM	0.376
[10], 0.3704 µM	0.356
[10], 1.111 µM	0.356
[10], 3.333 µM	0.314
[10], 10 µM	0.281
[11], 0.00017 µM	0.979
[11], 0.00051 µM	0.982
[11], 0.00152 µM	0.996
[11], 0.00457 µM	0.956
[11], 0.01372 µM	0.888
[11], 0.04115 µM	0.704
[11], 0.1235 µM	0.59
[11], 0.3704 µM	0.46
[11], 1.111 µM	0.4271
[11], 3.333 µM	0.411
[11], 10 µM	0.372
[12], 0.00017 µM	0.935
[12], 0.00051 µM	0.919
[12], 0.00152 µM	0.903
[12], 0.00457 µM	0.91
[12], 0.01372 µM	0.879
[12], 0.04115 µM	0.825
[12], 0.1235 µM	0.799
[12], 0.3704 µM	0.791
[12], 1.111 µM	0.8428
[12], 3.333 µM	0.728
[12], 10 µM	0.258
